Among the data in ChEMBL document CHEMBL5356981, “Discovery of potential scaffolds for glutaminyl cyclase inhibitors: Virtual screening, synthesis, and evaluation” (Bioorg Med Chem, 2024) are IC50 values, retold here.

For the experiment, the target named is Glutaminyl-peptide cyclotransferase (Homo sapiens, UniProt Q16769). The experiment is described as follows: Inhibition of N-terminal his6-tagged human recombinant glutaminyl cyclase expressed in Escherichia coli using H-Gln-AMC as substrate incubated for 60 mins in presence of pyroglutamyl peptidase.
Sequence of Glutaminyl-peptide cyclotransferase (Q16769 whole entry): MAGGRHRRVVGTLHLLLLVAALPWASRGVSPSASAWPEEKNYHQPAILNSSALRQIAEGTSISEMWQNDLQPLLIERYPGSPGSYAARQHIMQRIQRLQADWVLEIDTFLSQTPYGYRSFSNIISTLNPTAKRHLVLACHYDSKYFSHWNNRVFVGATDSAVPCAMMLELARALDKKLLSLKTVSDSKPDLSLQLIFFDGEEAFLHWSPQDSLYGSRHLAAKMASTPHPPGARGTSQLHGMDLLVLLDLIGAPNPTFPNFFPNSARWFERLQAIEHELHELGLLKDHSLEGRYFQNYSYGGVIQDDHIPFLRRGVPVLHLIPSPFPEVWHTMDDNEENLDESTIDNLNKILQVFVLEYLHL

By IC50 is commonly meant the point on the concentration scale where inhibition reaches its midpoint. `COc1ccc(S(=O)(=O)Nc2ccc(-c3cn[nH]c3)cc2)cc1`: the IC50 was greater than 30 µM.
